Values quoted from earlier work in publication PMC9516332 (Frontiers in Oncology, 2022).
Where two headings read alike, the source gives them in different places.

How the values were obtained:
Conditions in all cases: cited from earlier work
[1] = target: panel of 255 wild-type kinases (Homo sapiens, UniProt Q16816)
[2] = target: panel of 255 wild-type kinases (Homo sapiens, UniProt P21802)
[3] = target: T1, panel of 255 wild-type kinases (Homo sapiens, UniProt Q96PY6)
T1 sequence (Q96PY6 1-1258): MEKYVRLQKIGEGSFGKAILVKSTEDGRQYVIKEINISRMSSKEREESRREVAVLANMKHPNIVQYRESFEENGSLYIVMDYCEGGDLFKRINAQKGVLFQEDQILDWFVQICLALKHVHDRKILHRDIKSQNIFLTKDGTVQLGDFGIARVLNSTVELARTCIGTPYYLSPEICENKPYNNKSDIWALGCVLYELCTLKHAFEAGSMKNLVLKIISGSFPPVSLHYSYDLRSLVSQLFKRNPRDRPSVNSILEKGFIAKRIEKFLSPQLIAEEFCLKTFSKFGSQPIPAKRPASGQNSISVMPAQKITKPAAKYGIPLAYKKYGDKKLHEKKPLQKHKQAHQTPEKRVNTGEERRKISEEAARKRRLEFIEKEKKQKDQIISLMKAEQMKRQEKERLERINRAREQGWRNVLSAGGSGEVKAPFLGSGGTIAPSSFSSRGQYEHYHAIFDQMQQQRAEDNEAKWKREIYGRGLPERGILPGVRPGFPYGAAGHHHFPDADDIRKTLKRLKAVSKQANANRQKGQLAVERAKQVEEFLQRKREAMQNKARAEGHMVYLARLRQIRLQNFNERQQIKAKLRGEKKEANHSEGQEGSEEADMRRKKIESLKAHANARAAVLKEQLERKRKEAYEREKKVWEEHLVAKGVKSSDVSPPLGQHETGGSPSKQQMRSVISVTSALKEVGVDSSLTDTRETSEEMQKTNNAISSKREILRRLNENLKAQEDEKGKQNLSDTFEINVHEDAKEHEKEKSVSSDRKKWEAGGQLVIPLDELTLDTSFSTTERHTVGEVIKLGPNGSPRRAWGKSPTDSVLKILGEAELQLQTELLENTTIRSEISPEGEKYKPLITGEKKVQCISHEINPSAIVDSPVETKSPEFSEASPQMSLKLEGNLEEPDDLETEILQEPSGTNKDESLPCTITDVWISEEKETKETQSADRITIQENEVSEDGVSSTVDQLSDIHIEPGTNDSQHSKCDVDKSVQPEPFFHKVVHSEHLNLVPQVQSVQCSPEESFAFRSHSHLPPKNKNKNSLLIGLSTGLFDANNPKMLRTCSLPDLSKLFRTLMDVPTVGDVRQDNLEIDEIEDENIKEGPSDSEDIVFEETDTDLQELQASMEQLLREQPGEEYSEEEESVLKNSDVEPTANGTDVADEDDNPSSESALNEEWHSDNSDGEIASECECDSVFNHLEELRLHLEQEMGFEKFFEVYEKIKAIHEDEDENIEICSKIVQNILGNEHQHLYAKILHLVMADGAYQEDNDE

[4] = target: T2, panel of 255 wild-type kinases (Homo sapiens, UniProt P41743)
T2 sequence (P41743 1-596): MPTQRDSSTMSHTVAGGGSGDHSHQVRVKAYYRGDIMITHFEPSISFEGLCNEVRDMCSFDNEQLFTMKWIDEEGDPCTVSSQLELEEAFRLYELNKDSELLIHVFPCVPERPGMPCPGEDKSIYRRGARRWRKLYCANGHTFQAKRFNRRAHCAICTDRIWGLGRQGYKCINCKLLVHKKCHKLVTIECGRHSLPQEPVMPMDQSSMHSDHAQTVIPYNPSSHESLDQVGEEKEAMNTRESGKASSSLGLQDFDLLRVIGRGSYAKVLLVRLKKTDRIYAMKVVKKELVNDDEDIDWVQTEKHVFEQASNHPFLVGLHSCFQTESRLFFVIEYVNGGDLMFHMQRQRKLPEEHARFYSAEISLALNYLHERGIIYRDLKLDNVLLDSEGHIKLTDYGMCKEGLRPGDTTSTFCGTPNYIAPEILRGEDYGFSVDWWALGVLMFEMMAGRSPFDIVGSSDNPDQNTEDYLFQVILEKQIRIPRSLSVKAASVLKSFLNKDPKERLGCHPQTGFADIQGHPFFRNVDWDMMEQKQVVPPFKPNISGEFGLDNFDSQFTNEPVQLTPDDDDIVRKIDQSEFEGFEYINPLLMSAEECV

[5] = target: T3, panel of 255 wild-type kinases (Homo sapiens, UniProt Q8TDC3)
T3 sequence (Q8TDC3 1-778): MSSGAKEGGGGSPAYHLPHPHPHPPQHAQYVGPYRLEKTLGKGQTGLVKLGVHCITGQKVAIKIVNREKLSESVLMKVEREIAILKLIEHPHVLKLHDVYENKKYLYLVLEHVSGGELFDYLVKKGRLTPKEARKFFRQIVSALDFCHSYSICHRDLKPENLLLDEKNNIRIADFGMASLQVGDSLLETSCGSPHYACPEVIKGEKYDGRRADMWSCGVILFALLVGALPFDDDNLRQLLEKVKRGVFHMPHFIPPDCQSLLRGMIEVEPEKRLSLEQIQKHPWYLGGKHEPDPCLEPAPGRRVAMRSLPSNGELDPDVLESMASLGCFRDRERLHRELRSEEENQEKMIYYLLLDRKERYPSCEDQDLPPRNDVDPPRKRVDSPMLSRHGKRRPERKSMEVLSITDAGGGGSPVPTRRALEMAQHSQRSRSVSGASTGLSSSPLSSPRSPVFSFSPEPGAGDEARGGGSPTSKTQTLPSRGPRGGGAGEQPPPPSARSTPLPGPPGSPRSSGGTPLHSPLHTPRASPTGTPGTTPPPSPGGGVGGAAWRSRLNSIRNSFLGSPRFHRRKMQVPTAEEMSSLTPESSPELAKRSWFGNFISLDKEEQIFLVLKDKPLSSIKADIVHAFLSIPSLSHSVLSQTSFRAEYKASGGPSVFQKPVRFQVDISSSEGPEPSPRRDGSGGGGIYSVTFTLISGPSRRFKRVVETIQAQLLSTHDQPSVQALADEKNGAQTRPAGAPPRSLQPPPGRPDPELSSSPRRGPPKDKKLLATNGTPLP

[6] = kinase PHKG1, 1 µmol/L single concentration, ref DOI: 10.1158/1535-7163.MCT-18-0877
[7] = kinase FGFR2, 1 µmol/L single concentration, ref DOI: 10.1158/1535-7163.MCT-18-0877
[8] = NEK1, 1 µmol/L single concentration, ref DOI: 10.1158/1535-7163.MCT-18-0877
[9] = kinase PKCι, 1 µmol/L single concentration, ref DOI: 10.1158/1535-7163.MCT-18-0877
[10] = BRSK1 kinase assay, 1 µmol/L single concentration, ref DOI: 10.1158/1535-7163.MCT-18-0877
[11] = kinase PHKG1, 1 µmol/L single concentration, ref DOI: 10.1371/journal.pone.0092146
[12] = kinase FGFR2, 1 µmol/L single concentration, ref DOI: 10.1371/journal.pone.0092146
[13] = NEK1, 1 µmol/L single concentration, ref DOI: 10.1371/journal.pone.0092146
[14] = kinase PKCι, 1 µmol/L single concentration, ref DOI: 10.1371/journal.pone.0092146
[15] = BRSK1 kinase assay, 1 µmol/L single concentration, ref DOI: 10.1371/journal.pone.0092146

| Structure (SMILES) | %-inhibition at 1 µmol/L, PHKG1 [1, 6] | %-inhibition at 1 µmol/L, FGFR2 [2, 7] | %-inhibition, NEK1 [3, 8] | %-inhibition at 1 µmol/L, PKCι [4, 9] | %-inhibition BRSK1 [5, 10] | %-inhibition at 1 µmol/L, PHKG1 [1, 11] | %-inhibition at 1 µmol/L, FGFR2 [2, 12] | %-inhibition, NEK1 [3, 13] | %-inhibition at 1 µmol/L, PKCι [4, 14] | %-inhibition BRSK1 [5, 15] | further results |
| --- | --- | --- | --- | --- | --- | --- | --- | --- | --- | --- | --- |
| O=C(c1ccc(F)c(F)c1Nc1ccc(I)cc1F)N1CC(O)([C@@H]2CCCCN2)C1 [cobimetinib] | 3% | -2.8% | 4.29% | 2.45% | -13% | – | – | – | – | – | – |
| CC(C)(C)c1nc(-c2cccc(NS(=O)(=O)c3c(F)cccc3F)c2F)c(-c2ccnc(N)n2)s1 [dabrafenib] | – | – | – | – | – | -0.59% | 4% | 24% | 14% | 37% | – |
| Cc1cc(Nc2ncc(Cl)c(Nc3ccccc3S(=O)(=O)C(C)C)n2)c(OC(C)C)cc1C1CCNCC1 [ceritinib] | 91% | 15% | -1.68% | 25% | 32% | – | – | – | – | – | – |
| CCc1cc2c(cc1N1CCC(N3CCOCC3)CC1)C(C)(C)c1[nH]c3cc(C#N)ccc3c1C2=O [alectinib] | 78% | 2% | 5% | 11% | 8.48% | – | – | – | – | – | – |
| CCCS(=O)(=O)Nc1ccc(F)c(C(=O)c2c[nH]c3ncc(-c4ccc(Cl)cc4)cc23)c1F [vemurafenib] | – | – | – | – | – | -0.913% | 10% | -2.74% | -16% | -8% | – |
| COc1cc(N2CCC(N3CCN(C)CC3)CC2)ccc1Nc1ncc(Cl)c(Nc2ccccc2P(C)(C)=O)n1 [brigatinib] | – | – | – | – | – | – | – | – | – | – | %-inhibition at 1 µmol/L, PHKG1 [1]: 96%; %-inhibition at 1 µmol/L, FGFR2 [2]: 97%; %-inhibition, NEK1 [3]: 8%; %-inhibition at 1 µmol/L, PKCι [4]: -38%; %-inhibition BRSK1 [5]: 84% |
| CC(=O)Nc1cccc(-n2c(=O)n(C3CC3)c(=O)c3c(Nc4ccc(I)cc4F)n(C)c(=O)c(C)c32)c1 [trametinib] | – | – | – | – | – | -2.24% | -2.64% | -5% | 9% | -6% | – |
| CC#CC(=O)N1CCC[C@H]1c1nc(-c2ccc(C(=O)Nc3ccccn3)cc2)c2c(N)nccn12 [acalabrutinib] | -4% | -6% | -7.46% | -8% | -1.79% | – | – | – | – | – | – |
| C=CC(=O)Nc1cc(Nc2nccc(-c3cn(C)c4ccccc34)n2)c(OC)cc1N(C)CCN(C)C [osimertinib] | 38% | 5.56% | 2.43% | 20% | -12% | – | – | – | – | – | – |
| CO[C@@H]1[C@H](N(C)C(=O)c2ccccc2)C[C@H]2O[C@]1(C)n1c3ccccc3c3c4c(c5c6ccccc6n2c5c31)C(=O)NC4 [midostaurin] | 97% | 97% | 13% | 3% | – | – | – | – | – | – | %-inhibition BRSK1 [5]: 95% |
| C=CC(=O)N1CCC[C@@H](n2nc(-c3ccc(Oc4ccccc4)cc3)c3c(N)ncnc32)C1 [ibrutinib] | 1.53% | 81% | 3.73% | 2.23% | -7% | – | – | – | – | – | – |
| C[C@@H](Oc1cc(-c2cnn(C3CCNCC3)c2)cnc1N)c1c(Cl)ccc(F)c1Cl [crizotinib] | – | – | – | – | – | 2.74% | 27% | 2.24% | -5% | 12% | – |
